Assay results reported in article PMC7403315, “Cyclic peptide FXII inhibitor provides safe anticoagulation in a thrombosis model and in artificial lungs” (Nature Communications, 2020).
Several values for one entry are separate records, joined by “and”; a condition that tells them apart may be missing. Equal values may be shown once. Read-outs that look alike come from different tables or passages of the source. Starred links: 1 amine or outer side, 2 acyl side, 3 side chain; linkers in the order of their positions; H or OH if unused. Positions of bridges follow the written chain, without caps; N, C: chain ends. Non-standard residues stand in square brackets, D forms with d. Residues, ends and D or L forms follow the SMILES beside them. TATA = O=C(CC[*:1])N1CN(C(=O)CC[*:2])CN(C(=O)CC[*:3])C1; Phe(4-F) = N[C@@H](Cc1ccc(F)cc1)C(=O)O; β3hR = N=C(N)NCCC[C@H](N)CC(=O)O

Legend:
human β-FXIIa = target: T1, human β-FXIIa (Homo sapiens, UniProt P00748); assay: FXIIa protease inhibition assay with fluorogenic substrate Boc-Gln-Gly-Arg-AMC; type: biochemical
T1 construct: human β-FXIIa (Molecular Innovations cat #); purchased Molecular Innovations HFXIIAB; host or cells: human blood
In short: (§1)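 Mouse α-FXIIa or human β-FXIIa (0.4 nM final) was preincubated with bicyclic peptide for 10 min at 25 °C in Tris-Cl buffer with 1% DMSO. Residual activity was then read over 30 min with 50 µM Boc-Gln-Gly-Arg-AMC (ex 368/em 467 nm). IC50 came from sigmoidal fits, and Ki was derived by Cheng-Prusoff.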

Mouse α-FXIIa = target: T2, Mouse α-FXIIa (Mus musculus, UniProt Q80YC5); assay: as above; type: biochemical
T2 construct: Mouse α-FXIIa; purchased Molecular Innovations MFXIIA
T2 sequence (Q80YC5 355-597 limits assumed): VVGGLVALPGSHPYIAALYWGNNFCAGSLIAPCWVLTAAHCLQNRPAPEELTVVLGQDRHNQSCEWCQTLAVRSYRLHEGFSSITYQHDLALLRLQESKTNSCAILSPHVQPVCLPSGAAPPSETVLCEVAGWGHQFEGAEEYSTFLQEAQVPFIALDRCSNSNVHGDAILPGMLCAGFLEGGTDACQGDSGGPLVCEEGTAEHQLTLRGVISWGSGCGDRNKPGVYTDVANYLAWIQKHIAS
T2 sequence (Q80YC5 20-354 limits assumed): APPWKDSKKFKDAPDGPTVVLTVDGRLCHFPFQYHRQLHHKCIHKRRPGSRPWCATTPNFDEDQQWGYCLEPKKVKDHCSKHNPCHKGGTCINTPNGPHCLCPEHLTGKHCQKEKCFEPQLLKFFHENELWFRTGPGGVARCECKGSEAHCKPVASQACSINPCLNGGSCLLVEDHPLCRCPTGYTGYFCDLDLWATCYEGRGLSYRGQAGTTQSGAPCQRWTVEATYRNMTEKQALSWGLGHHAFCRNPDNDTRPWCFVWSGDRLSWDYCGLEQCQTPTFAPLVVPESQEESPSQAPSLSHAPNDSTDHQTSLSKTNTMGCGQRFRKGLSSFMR
In short: as §1

[1] = crude, coumarin labeled peptides, individual plates
[2] = inhibitor 0.488281 nM, 0.000488281 µM
[3] = inhibitor 1.95312 nM, 0.00195312 µM
[4] = inhibitor 3.90625 nM, 0.00390625 µM
[5] = inhibitor 7.8125 nM, 0.0078125 µM
[6] = inhibitor 15.625 nM, 0.015625 µM
[7] = inhibitor 0.976562 / 0.976563 nM, 0.000976563 µM

T1 sequence (P00748 373-615 limits assumed, other chains not shown): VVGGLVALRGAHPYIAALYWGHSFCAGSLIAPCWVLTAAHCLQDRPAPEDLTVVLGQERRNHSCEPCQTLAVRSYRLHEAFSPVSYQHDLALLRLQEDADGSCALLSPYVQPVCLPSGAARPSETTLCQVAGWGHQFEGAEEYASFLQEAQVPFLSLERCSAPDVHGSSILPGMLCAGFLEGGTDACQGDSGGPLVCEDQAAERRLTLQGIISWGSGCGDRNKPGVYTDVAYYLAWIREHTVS

CC(C)C[C@@H]1NC(=O)[C@H](CCC(N)=O)NC(=O)[C@H](CCCNC(=N)N)NC(=O)[C@@H]2CSCCC(=O)N3CN(CN(C3)C(=O)CCSC[C@H](NC(=O)[C@@H](N)CCCNC(=N)N)C(=O)N[C@@H](Cc3ccccc3)C(=O)N[C@@H](CCCNC(=N)N)C(=O)N[C@@H](CC(C)C)C(=O)N3CCC[C@H]3C(=O)N2)C(=O)CCSC[C@@H](C(=O)N[C@@H](CCCNC(=N)N)C(N)=O)NC(=O)[C@H](CCCNC(=N)N)NC1=O [FXII618]
IC50 (human β-FXIIa; [1]): 18.4 nM and 23.5 nM and 23.3 nM and 27.9 nM | Residual activity of human FXIIa (human β-FXIIa; [2]): 96.6624% and 92.9553% | remaining activity at 0.000488281 µM (human β-FXIIa; inhibitor 0.488281 nM, read-out: Residual activity of human FXIIa): 98.6% | Residual activity of human FXIIa (human β-FXIIa; [3]): 84.5129% and 82.3772% | remaining activity at 0.00195312 µM (human β-FXIIa; inhibitor 1.95312 nM, read-out: Residual activity of human FXIIa): 85.8% | Residual activity of human FXIIa (human β-FXIIa; [4]): 70.1534% and 69.6521% | remaining activity at 0.00390625 µM (human β-FXIIa; inhibitor 3.90625 nM, read-out: Residual activity of human FXIIa): 75.7% | Residual activity of human FXIIa (human β-FXIIa; [5]): 55.0198% and 53.6523% | remaining activity at 0.0078125 µM (human β-FXIIa; inhibitor 7.8125 nM, read-out: Residual activity of human FXIIa): 59.1% | Residual activity of human FXIIa (human β-FXIIa; [6]): 36.7931% and 38.5109% | remaining activity at 0.015625 µM (human β-FXIIa; inhibitor 15.625 nM, read-out: Residual activity of human FXIIa): 39.2% | Residual activity of human FXIIa (human β-FXIIa; inhibitor 31.25 nM, 0.03125 µM): 21.9721% and 22.4384% | remaining activity at 0.03125 µM (human β-FXIIa; inhibitor 31.25 nM, read-out: Residual activity of human FXIIa): 24.9% | Residual activity of human FXIIa (human β-FXIIa; inhibitor 62.5 nM, 0.0625 µM): 12.1968% and 13.3118% | remaining activity at 0.0625 µM (human β-FXIIa; inhibitor 62.5 nM, read-out: Residual activity of human FXIIa): 14% | Residual activity of human FXIIa (human β-FXIIa; inhibitor 125 nM, 0.125 µM): 6.613% and 11.4379% | remaining activity at 0.125 µM (human β-FXIIa; inhibitor 125 nM, read-out: Residual activity of human FXIIa): 7.65% | remaining activity at […] (human β-FXIIa; inhibitor 250 nM, read-out: Residual activity of human FXIIa): 3.83% | Residual activity of human FXIIa (human β-FXIIa; inhibitor 500 nM, 0.5 µM): 2.542% and 2.502% | remaining activity at 0.5 µM (human β-FXIIa; inhibitor 500 nM, read-out: Residual activity of human FXIIa): 2.52% | Residual activity of human FXIIa (human β-FXIIa; [7]): 92.5507% and 90.2369% | remaining activity at 0.000976563 µM (human β-FXIIa; inhibitor 0.976562 / 0.976563 nM, read-out: Residual activity of human FXIIa): 96.2% | Ki (human β-FXIIa; purified peptide without coumarin label, read-out: Ki human FXIIa): 8.1 ± 0.7 nM | IC50 (Mouse α-FXIIa; [1]): 290 nM and 312 nM and 236 nM and 289 nM and 257 nM and 228 nM and 245 nM and 286 nM and 358 nM | Ki (Mouse α-FXIIa; purified peptide without coumarin label, read-out: Ki mouse FXIIa): 86 ± 9 nM

CC(C)C[C@@H]1NC(=O)[C@H](CCC(N)=O)NC(=O)[C@H](Cc2c[nH]cn2)NC(=O)[C@@H]2CSCCC(=O)N3CN(CN(C3)C(=O)CCSC[C@H](NC(=O)[C@@H](CO)NC(=O)[C@H](N)CCCNC(=N)N)C(=O)N[C@@H](Cc3ccc(F)cc3)C(=O)N[C@@H](CCCNC(=N)N)C(=O)N[C@@H](CC(C)C)C(=O)N3CCC[C@H]3C(=O)N2)C(=O)CCSC[C@@H](C(N)=O)NC(=O)C[C@H](CCCNC(=N)N)NC1=O [FXII900] (H-[dR][dS]C[Phe(4-F)]RLPCHQL[β3hR]C-NH2; linker 3-8-13 via TATA)
Ki (human β-FXIIa): 0.37 ± 0.04 nM | Residual activity of human FXIIa (human β-FXIIa; inhibitor 0.030518 nM, 30.52 pM): 89.8015% | Residual activity of human FXIIa (human β-FXIIa; inhibitor 0.03125 nM, 31.25 pM): 91.2184% and 98.3306% | Residual activity of human FXIIa (human β-FXIIa; inhibitor 0.061035 nM, 61.04 pM): 87.3761% | Residual activity of human FXIIa (human β-FXIIa; inhibitor 0.0625 nM, 62.5 pM): 92.1225% and 95.5725% | Residual activity of human FXIIa (human β-FXIIa; inhibitor 0.12207 nM, 0.00012207 µM): 78.5763% | Residual activity of human FXIIa (human β-FXIIa; inhibitor 0.125 nM, 0.000125 µM): 82.8895% and 92.0812% | Residual activity of human FXIIa (human β-FXIIa; inhibitor 0.244141 nM, 0.000244141 µM): 65.9451% | Residual activity of human FXIIa (human β-FXIIa; [2]): 44.4485% | Residual activity of human FXIIa (human β-FXIIa; inhibitor 0.5 nM, 0.0005 µM): 54.1096% and 47.3759% | Residual activity of human FXIIa (human β-FXIIa; inhibitor 1 nM, 0.001 µM): 29.6346% and 29.527% | Residual activity of human FXIIa (human β-FXIIa; [3]): 9.983% and 4.833% | Residual activity of human FXIIa (human β-FXIIa; inhibitor 2 nM, 0.002 µM): 13.0658% and 11.4779% | Residual activity of human FXIIa (human β-FXIIa; [4]): 2.681% and 0.3074% | Residual activity of human FXIIa (human β-FXIIa; inhibitor 4 nM, 0.004 µM): 2.623% and 4.603% and 9.7% | Residual activity of human FXIIa (human β-FXIIa; [5]): 1.017% and -0.1178% | Residual activity of human FXIIa (human β-FXIIa; inhibitor 8 nM, 0.008 µM): 0.8848% and 2.033% and 3.493% | Residual activity of human FXIIa (human β-FXIIa; [6]): 1.594% and 0.3357% | Residual activity of human FXIIa (human β-FXIIa; [7]): 20.4026% | remaining activity at 30.52 pM (human β-FXIIa; read-out: Residual activity of human FXIIa, inhibitor 0.030518 nM): 92.8% | remaining activity at 31.25 pM (human β-FXIIa; read-out: Residual activity of human FXIIa, inhibitor 0.03125 nM): 90.7% | remaining activity at 61.04 pM (human β-FXIIa; read-out: Residual activity of human FXIIa, inhibitor 0.061035 nM): 102% | remaining activity at 62.5 pM (human β-FXIIa; read-out: Residual activity of human FXIIa, inhibitor 0.0625 nM): 89.8% | remaining activity at 0.00012207 µM (human β-FXIIa; read-out: Residual activity of human FXIIa, inhibitor 0.12207 nM): 77.3% | remaining activity at 0.000125 µM (human β-FXIIa; read-out: Residual activity of human FXIIa, inhibitor 0.125 nM): 80.4% | remaining activity at 0.000244141 µM (human β-FXIIa; read-out: Residual activity of human FXIIa, inhibitor 0.244141 nM): 66.6% | remaining activity at 0.000488281 µM (human β-FXIIa; read-out: Residual activity of human FXIIa, inhibitor 0.488281 nM): 51.8% | remaining activity at 0.0005 µM (human β-FXIIa; read-out: Residual activity of human FXIIa, inhibitor 0.5 nM): 46.7% | remaining activity at 0.001 µM (human β-FXIIa; read-out: Residual activity of human FXIIa, inhibitor 1 nM): 24.6% | remaining activity at 0.002 µM (human β-FXIIa; read-out: Residual activity of human FXIIa, inhibitor 2 nM): 8.92% | remaining activity at 0.03125 µM (human β-FXIIa; read-out: Residual activity of human FXIIa, inhibitor 31.25 nM): 0% | remaining activity at 0.000976563 µM (human β-FXIIa; read-out: Residual activity of human FXIIa, inhibitor 0.976562 / 0.976563 nM): 29.9% | Ki (Mouse α-FXIIa): 0.45 ± 0.11 nM
